For eleven molecules, EC50 results are on record in ChEMBL document CHEMBL2417501, “Synthesis of 4-aminoquinoline-pyrimidine hybrids as potent antimalarials and their mode of action studies” (Eur J Med Chem, 2013).

Broadly, the EC50 is the concentration giving half of the maximal effect.

In this assay the test system is Vaccinia virus. In words: Antiviral activity against Vaccinia virus infected in human HEL cells assessed as reduction of virus-induced cytopathogenicity. The format is functional, organism-based. The conditions noted are these: Orthopoxvirus vaccinia. In general terms: Cytopathic effects are the visible damage that an infection or toxin causes in cultured cells.
Turning to `CCOC(=O)c1c(C)nc(NCCCCNc2ccnc3cc(Cl)ccc23)nc1-c1ccc(Cl)cc1`, the EC50 was more than 20 µM. Consider `CCOC(=O)c1c(C)nc(NCCCCNc2ccnc3cc(Cl)ccc23)nc1-c1ccc(F)cc1`, for which the EC50 was more than 100 µM. `COC(=O)c1c(C)nc(NCCCNc2ccnc3cc(Cl)ccc23)nc1-c1ccccc1`: the EC50 was more than 20 µM. For `Nc1nc2c(ncn2COC(CO)CO)c(=O)[nH]1` [GANCICLOVIR], the EC50 is more than 100 µM. In the case of `CCOC(=O)c1c(C)nc(NCCCCNc2ccnc3cc(Cl)ccc23)nc1-c1ccccc1[N+](=O)[O-]`, the EC50 was more than 4 µM. Turning to `CCOC(=O)c1cnc(NCCCCNc2ccnc3cc(Cl)ccc23)nc1C`, the EC50 is more than 100 µM.

`Nc1ccn(C[C@@H](CO)OCP(=O)(O)O)c(=O)n1` [CIDOFOVIR]: the EC50 is 17 µM. As to `Nc1nc2c(ncn2COCCO)c(=O)[nH]1` [ACYCLOVIR], the EC50 was more than 250 µM.

Consider `O=c1[nH]c(=O)n([C@H]2C[C@H](O)[C@@H](CO)O2)cc1/C=C/Br` [BRIVUDINE], for which the EC50 turned out to be 5 µM. For the molecule `Cc1nc(NCCCCNc2ccnc3cc(Cl)ccc23)nc(-c2ccccc2)c1C(=O)OC(C)C`, the EC50 is more than 4 µM.

With `CCOC(=O)c1c(C)nc(OCCCNc2ccnc3cc(Cl)ccc23)nc1-c1ccccc1`, the EC50 was more than 100 µM.
